Reference: PubChem BioAssay (NCI)
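Briefly, cells in 96-well plates were exposed to five compound concentrations for 48 h, and endpoints were estimated by linear interpolation. The concentration for full growth arrest is given as TGI.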

Experiments:
Assay in all cases: NCI tumour cell line growth inhibition, 48 h
DMS 273 small cell lung = tested on: DMS 273 small cell lung
HOP-18 NSCLC = tested on: HOP-18 NSCLC
LXFL 529 NSCLC = tested on: LXFL 529 NSCLC
DMS 114 small cell lung = tested on: DMS 114 small cell lung
SNB-78 CNS = tested on: SNB-78 CNS
SN12K1 renal = tested on: SN12K1 renal
P388/ADR leukemia = tested on: P388/ADR leukemia
P388 leukemia = tested on: P388 leukemia
XF 498 CNS = tested on: XF 498 CNS
RXF-631 renal = tested on: RXF-631 renal

SMILES	TGI (DMS 273 small cell lung) [µM]	TGI (HOP-18 NSCLC) [µM]	TGI (LXFL 529 NSCLC) [µM]	TGI (DMS 114 small cell lung) [µM]	TGI (SNB-78 CNS) [µM]	TGI (SN12K1 renal) [µM]	TGI (P388/ADR leukemia) [µM]	TGI (P388 leukemia) [µM]	TGI (XF 498 CNS) [µM]	TGI (RXF-631 renal) [µM]
Cc1c2cc[n+](C)cc2c(C)c2c1oc1ccccc12	16.7	> 63.7	15.8	7.86	29.6	–	–	–	–	–
O=C(NC(Cc1ccc(I)cc1)C(=O)O)c1ccc(Cl)cc1 (configuration not stated)	> 100	> 100	–	–	> 100	> 100	> 100	> 100	> 100	–
CC1C(=O)C(C)C(c2ccco2)N(N=O)C1c1ccco1 (configuration not stated)	> 100	> 100	–	–	> 100	> 100	> 100	> 100	50.5	–
O=C1OC2(OC2c2ccc(Cl)cc2)c2ccccc21 (configuration not stated)	> 100	–	78.2	> 100	–	–	–	–	> 100	–
COc1cc([N+](=O)[O-])ccc1NC(=O)c1cccc([N+](=O)[O-])c1O	–	61	> 100	> 100	> 100	–	–	–	–	> 100
CS(=O)(=O)OCCN(CCOS(C)(=O)=O)c1ccc(/C=N/Nc2ncnc3nc[nH]c23)cc1	35.4	70.7	–	26.2	75.5	–	–	–	38.8	–
Cc1ccc(N=NC(C2=NC(=O)CS2)c2nc3ccccc3[nH]2)cc1 (configuration not stated)	> 100	–	> 100	> 100	–	–	–	–	> 100	–
